The test system of series [1] is TMD8. Nature of the series: Induction of cell cycle arrest in human TMD8 cells assessed as accumulation of cells at G0-G1 phase at 0.5 uM incubated for 24 hrs by PI staining based flow cytometry analysis (reference value: 40.7%). The series is classed as functional. (A flow cytometer gives signals particle by particle.)
Series [2] deals with DOHH-2. Nature of the series: Induction of cell cycle arrest in human DOHH-2 cells assessed as accumulation of cells at S phase at 1.0 uM incubated for 24 hrs by PI staining based flow cytometry analysis (reference value: 40.7%). The series is classed as functional.
In series [3] the test system is TMD8. Description: Induction of apoptosis in human TMD8 cells assessed as early apoptotic cells at 10 uM measured after 48 hrs by annexin-V/FITC and PI staining based flow cytometry analysis (reference value: 9.15%). The series is classed as functional.
The subject of another series is THP-1. Description: Antiproliferative activity against human THP-1 cells assessed as inhibition of cell viability measured after 72 hrs by MTT assay. It counts as functional, cell-based. The note with it: THP-1, 72 h. On the technique in general: Tetrazolium dyes change colour on reduction, which living cells bring about.
The subject of the next series is MOLM-13. Nature of the series: Antiproliferative activity against human MOLM-13 cells assessed as inhibition of cell viability measured after 72 hrs by MTT assay. The settings on record: MOLM-13, 72 h. It counts as functional, cell-based.
Series [4] is described as follows: Volume of distribution at steady state in Sprague-Dawley rat at 10 mg/kg, iv measured upto 24 hrs by LC/MS/MS analysis. The series is classed as ADME, organism-based. The note with it: in vivo, read-out: Vdss.
Series [5] in a line: Terminal elimination half life in Sprague-Dawley rat at 10 mg/kg, po measured upto 24 hrs by LC/MS/MS analysis. It counts as ADME, organism-based. The note with it: in vivo, read-out: beta t1/2 (converted).
Series [6] can be described thus: Subacute toxicity in Balb/C mouse assessed as effect on platelet at 30 mg/kg, iv administered three times in a week for 2 weeks. The series is classed as organism-based. The note with it: in vivo, 336 h.
A short description of series [7]: Oral bioavailability in Sprague-Dawley rat at 10 mg/kg measured upto 24 hrs by LC/MS/MS analysis. It counts as ADME, organism-based. The settings on record: Sprague-Dawley, in vivo.
Series [8] is described as follows: Subacute toxicity in Balb/C mouse assessed as effect on heart at 30 mg/kg, iv administered three times in a week for 2 weeks. The series is classed as organism-based. The settings on record: in vivo, 336 h.
Series [9] relates to DOHH-2. Description: Induction of cell cycle arrest in human DOHH-2 cells assessed as accumulation of cells at S phase at 0.25 uM incubated for 24 hrs by PI staining based flow cytometry analysis (reference value: 40.7%). It counts as functional.
Series [10] has as its system TMD8. Nature of the series: Induction of apoptosis in human TMD8 cells assessed as late apoptotic cells at 5 uM measured after 48 hrs by annexin-V/FITC and PI staining based flow cytometry analysis (reference value: 5.13%). It counts as functional.
For series [11], the system named is TMD8. Nature of the series: Induction of cell cycle arrest in human TMD8 cells assessed as accumulation of cells at G0-G1 phase at 0.25 uM incubated for 24 hrs by PI staining based flow cytometry analysis (reference value: 40.7%). It counts as functional.
The test system of series [12] is TMD8. Description: Induction of cell cycle arrest in human TMD8 cells assessed as accumulation of cells at G2/M phase incubated for 24 hrs by PI staining based flow cytometry analysis. It counts as functional. The note with it: dose 0.25-1 µM.
A short description of series [13]: Subacute toxicity in Balb/C mouse assessed as effect on kidney at 30 mg/kg, iv administered three times in a week for 2 weeks. It counts as organism-based. The settings on record: in vivo, 336 h.
Series [14] relates to DOHH-2. Nature of the series: Antiproliferative activity against human DOHH-2 cells assessed as inhibition of cell viability measured after 72 hrs by MTT assay. The series is classed as functional, cell-based. The note with it: DOHH-2, 72 h.
A short description of series [15]: Subacute toxicity in Balb/C mouse assessed as effect on spleen at 30 mg/kg, iv administered three times in a week for 2 weeks. It counts as organism-based. The settings on record: in vivo, 336 h.
Series [16] deals with TMD8. Nature of the series: Induction of cell cycle arrest in human TMD8 cells assessed as accumulation of cells at G2/M phase at 0.25 uM incubated for 24 hrs by PI staining based flow cytometry analysis (reference value: 20.4%). The series is classed as functional.
Series [17] concerns the target DNA (cytosine-5)-methyltransferase 3B (Homo sapiens, UniProt Q9UBC3). Nature of the series: Inhibition of DNMT3B (unknown origin) at 5 uM preincubated for 15 mins followed by substrate and [3H-SAM] addition and measured after 60 mins by microbeta analysis relative to control. The note with it: time 75.0 min.
Another series relates to HT-29. Nature of the series: Antiproliferative activity against human HT-29 cells assessed as inhibition of cell viability measured after 72 hrs by MTT assay. The note with it: HT-29, 72 h. The series is classed as functional, cell-based.
Series [18] deals with DOHH-2. Nature of the series: Induction of apoptosis in human DOHH-2 cells assessed as early apoptotic cells at 2.5 uM measured after 48 hrs by annexin-V/FITC and PI staining based flow cytometry analysis (reference value: 5.69%). The series is classed as functional.
The next series deals with HepG2. Nature of the series: Antiproliferative activity against human HepG2 cells assessed as inhibition of cell viability measured after 72 hrs by MTT assay. The series is classed as functional, cell-based. The settings on record: HepG2, 72 h.
In series [19] the test system is TMD8. Description: Induction of cell cycle arrest in human TMD8 cells assessed as accumulation of cells at G2/M phase at 1.0 uM incubated for 24 hrs by PI staining based flow cytometry analysis (reference value: 20.4%). The series is classed as functional.

On to `CN1CCC(Nc2nc(-c3ccnc(F)c3)nc3c2ccn3CCCN2CCCC2)CC1`, for which the Activity in the series with TMD8 [1] was 39%; in the series with DOHH-2 [2], 19.9%; with TMD8 [3], 47.5%; in series [6], “Non-toxic”; in series [8] it was “Non-toxic”; in the series on DOHH-2 [9] it was 37.3%. In addition, the Activity is 17% with TMD8 [10]; 37.9% in the series on TMD8 [11]; “Dose-dependent-effect” in the series with TMD8 [12]; “Non-toxic” in [13]; “Non-toxic” in series [15]; 24.4% in the series with TMD8 [16]. Also, the Activity turned out to be 33.7% in the series with DOHH-2 [18] and 38.2% with TMD8 [19]. For the same molecule, the IC50 with THP-1 amounted to 2.37 µM; in the series with MOLM-13, 1.06 µM; in the series on DOHH-2 [14], 0.19 µM; with HT-29, 1.06 µM; in the series with HepG2 it was 2.88 µM. Besides, the Vd in series [4] turned out to be 102 L/kg. In series [5], the half-life is 21.9 h. Also, the bioavailability in series [7] came to 23.4%. The molecule also came in with an inhibition in series [17] of 1.1%.

In general, IC50 refers to the concentration that gives 50% inhibition. In general, bioavailability refers to dose-corrected exposure relative to a reference, in per cent. Lower therefore signals poor availability. A word on the inhibition: it is the share of the control response that was lost under treatment. A low value points to a response near the control.
